ChEMBL document CHEMBL3507680, “University of Dundee, Gates Library screen for HepG2 cell viability”

Experiment: Human HepG2 cell viability assay in 384 well format
Type: toxicity, cell-based
Set-up: dose 125 nL, time 70.5 hour; concentration not given beside the values
Conditions: HepG2 cells, read-out: Inhibition

Row | Structure (SMILES) | cytotoxicity at 70.5 h [%]
1 | COC(=O)c1ccc(NC(=O)NC2CCc3[nH]ncc3C2)cc1 (stereo unspecified) | 1.54
2 | Cc1ccccc1CN1CCNC(=O)C1CC(=O)NCC1CCCCC1 (stereo unspecified) | -7.5
3 | CNc1cccc(CC2COCCN(C(=O)c3cnn(C)c3)C2)n1 (stereo unspecified) | -0.46
4 | Cc1csc(CN(C)CCOc2ccccc2)n1 | 20.8
5 | Cn1ccnc1-c1ccc(NCCC2COc3ccccc3O2)nn1 (stereo unspecified) | -4.08
6 | COCc1ncc(CN2CCC(Oc3ccccc3C)CC2)cn1 | -16.4
7 | Cc1cnn(CC2CCCN2Cc2cc(C)on2)c1 (stereo unspecified) | -4.61
8 | CC1=N[C@@]2(CC[C@@H]3CN(Cc4cccc(Cl)c4)C[C@@H]32)C(=O)N1CC1CC1 | -14.9
9 | Cc1cc(C)n(CC2CCCN2CC(=O)NC2CCOCC2)n1 (stereo unspecified) | -15.9
10 | CC(C)CN1CC(c2nc(-c3ccc(F)cc3)c[nH]2)CC1=O (stereo unspecified) | -7.74
11 | CCN(CC(C)C#N)C(=O)CSc1ccc(C(F)(F)F)cn1 (stereo unspecified) | -3.1
12 | Cc1ccc(C(=O)N2C[C@@H]3OCCN(CC4CCCC4)[C@@H]3C2)cn1 | -6.94
13 | Cc1ccn(CC(=O)N2CC[C@@H](c3ccc4ccccc4c3)[C@H](O)C2)n1 | -10.1
14 | Cc1cc(-c2cnc(N3CCC(C(N)=O)CC3)nc2C(C)C)on1 | 9.37
15 | COC(=O)c1cccc(S(=O)(=O)Nc2ccc(F)c(C(N)=O)c2)c1 | 14.1
16 | CCN(Cc1cccc2c1OCO2)C(=O)Nc1ccccn1 | -9.07
17 | Cc1cc2[nH]c(=O)oc2cc1S(=O)(=O)N1CCCC(N(C)C)CC1 (stereo unspecified) | -2.95
18 | CN(CC(O)CO)C(=O)c1coc(COc2cccc(F)c2)n1 (stereo unspecified) | 8.53
19 | Cc1ccc(C(=O)N2C[C@H]3CCC[C@@]3(COCc3cccnc3)C2)s1 | -12
20 | Cc1ccccc1N1CCN(C(=O)c2ncc(F)cc2F)C(C)C1 (stereo unspecified) | -3.38
21 | Cc1ccnc(CC(C)N(C)Cc2ccc3c(c2)CCO3)c1 (stereo unspecified) | -5.48
22 | CN1CC2(CCN(C(=O)C3CCC3)CC2)COc2ccccc2S1(=O)=O | -4.42
23 | CCc1ncc(CN2CCc3nc4sc(C)cc4c(=O)n3CC2)cn1 | 17.6

Row | Structure (SMILES) | cytotoxicity at 70.5 h [%]
24 | CC(=O)N1CCN2C(=O)N(Cc3ccc(F)cc3)C[C@H]2C1 | -13
25 | CC1CCN(c2ncc3c(n2)CN(C2CCS(=O)(=O)C2)C3=O)CC1 (stereo unspecified) | 29
26 | COCC(=O)N1CCC2(CC1)NC(=O)c1ccccc12 | 31.8
27 | CC(C)c1noc(CCC(=O)N2CCN(C)CC2c2ccccc2)n1 (stereo unspecified) | -9.08
28 | Cn1ccnc1CN1C[C@H](N2CCOCC2)[C@@H]2OCCC[C@@H]21 | -3.14
29 | CCc1nnc(Nc2cccc(C3CCN(C(=O)CN(C)C)CC3)n2)s1 | 9.15
30 | CN(C(=O)CCc1ccncc1)C1CCCN(CCc2ccccc2)C1 (stereo unspecified) | -7.17
31 | CS(=O)(=O)N1CCO[C@@H]2CN(C(=O)N3CCOCC3)CC[C@@H]2C1 | -6.09
32 | Cc1cccc(CN2CCc3ncnc(NC4CCC4)c3CC2)n1 | 5.7
33 | Cc1cc(CN(C)Cc2ncc(-c3cccs3)o2)no1 | 0.203
34 | CC(C)C(=O)N1CCN(Cc2cc(-c3ccncc3)nn2C)CC1 | 31.9
35 | Cc1ccc2c(c1)OC(C)(C)CC2NC(=O)C1CCN(C)CC1 (stereo unspecified) | -9.96
36 | N#Cc1ccc(N2CCC3(CCCN(c4ccccn4)C3)C2)nc1 (stereo unspecified) | -1.5
37 | CCc1cc(CNC(=O)N2Cc3ccccc3N(C)CC2C)on1 (stereo unspecified) | 3.84
38 | CCN1CCOC(CNCc2ccccn2)C1 (stereo unspecified) | -7.88
39 | Cc1noc(C)c1CN1CC[C@@H]2O[C@@H](COCC3CC3)CC[C@@H]21 | -4.44
40 | CN(C)CC(=O)N1CCC2(CC(=O)N(c3cccc(C#N)c3)C2)C1 (stereo unspecified) | 4.59
41 | Cc1ccsc1C(=O)N1CCN(Cc2cscn2)CC1 | -3.03
42 | CCC[C@H]1CN(c2nccc(NCC)n2)C[C@@H]1NS(=O)(=O)N(C)C | -7.09
43 | CCNC(c1ccc(Br)cc1)c1cccnc1 (stereo unspecified) | 1.53
44 | COc1nc(N2CCC(CC(N)=O)CC2)ncc1Br | -8.58
45 | CCc1nc2c(c(N(C)Cc3nncn3CCOC)n1)CCNCC2 | -8.26
46 | Cc1cccc(C)c1NC(=O)CNC(C)Cc1ccsc1 (stereo unspecified) | 32.9

Row | Structure (SMILES) | cytotoxicity at 70.5 h [%]
47 | CN1[C@H](Cn2cncn2)C[C@@H]2CN(Cc3cccc(C#N)c3)CC[C@@H]21 | -6.46
48 | Cc1ccc(C)c(OC2CCN(C(=O)CNc3ccccc3Cl)CC2)c1 | 24.6
49 | CN1CC(=O)N(c2ccccc2)CC12CCN(CC1CC1)C2 (stereo unspecified) | -26.6
50 | COc1ccc(C(=O)C2CCCN(Cc3cnn(C)c3C)C2)c(OC)c1 (stereo unspecified) | -20.2
51 | O=C(Nc1cccc(C(F)F)c1)N[C@@H]1C=C[C@H](CO)C1 | 2.83
52 | CN(C)C(C(=O)NCCSc1ncn[nH]1)c1cccc(F)c1 (stereo unspecified) | 28.8
53 | COc1ccc(CN2C[C@@H]3OCC(=O)N(Cc4nccn4C)[C@@H]3C2)cc1 | -3.1
54 | O=C1CC(CNc2cncc(Cl)n2)c2ccccc2N1 (stereo unspecified) | -2.03
55 | Cc1ccc2ncn(C(C)Cn3cccn3)c(=O)c2c1 (stereo unspecified) | -5.52
56 | N#Cc1cccnc1N1CCCN(C(=O)CCn2cccn2)CC1 | -9.39
57 | NC(=O)CS(=O)(=O)Cc1cc(Cl)c2c(c1)OCCCO2 | 13.8
58 | O=C(CCc1ccccc1F)NC1CCCN(c2ccccn2)C1 (stereo unspecified) | -5.74
59 | Cc1n[nH]c(C2CN(C(=O)c3ccc(=O)n(C)c3)CCO2)n1 (stereo unspecified) | 25.4
60 | COCCCN(Cc1cnc(-c2cccs2)nc1)C1CCN(C)CC1 | -12
61 | CCC(C)(C)NC(=O)c1ccc(NC(=O)NCc2cc(C)on2)cc1 | -6.36
62 | Cc1cccc(C(=O)N2CCn3cnc(COCC4CC4)c3C2)c1 | -5.71
63 | Cc1ccc(C(=O)N2CCCCC2c2[nH]ncc2S(C)(=O)=O)s1 (stereo unspecified) | 12.5
64 | Cc1nn(C)c(N(C)C)c1CNCc1ccc(OCC(N)=O)cc1 | 0.111
65 | c1csc(CN2CCO[C@H]3[C@H](OCC4CCCC4)CC[C@@H]32)n1 | -1.77
66 | O=C(NCC1CC1)Nc1cccc(N2CCN(CC3CC3)CC2)c1 | -0.269
67 | CN(Cc1nc2ccccc2o1)C1CCCN(c2cccnn2)C1 (stereo unspecified) | 4.68
68 | C1CCC(CNC2CCSCC2)(N2CCOCC2)CC1 | 3.74
69 | CC(NC(=O)NCC(F)(F)F)c1nncn1C (stereo unspecified) | 29.7

Row | Structure (SMILES) | cytotoxicity at 70.5 h [%]
70 | CN(C)CCN1Cc2ncn(C)c2C(COCC(=O)N(C)C)C1 (stereo unspecified) | -8.47
71 | C[C@H]1C[C@H]2CN(C(=O)CCc3ccccc3)CC[C@H]2O1 | -11.5
72 | COCCN1CC(=O)c2sc(NC(C)C)nc2C1 | 2.05
73 | CCN(C(C)=O)c1nc(CN2CCCCC2Cn2cncn2)cs1 (stereo unspecified) | -3.03
74 | CC(C)c1nc(CN(C)C2CCN(CCS(C)(=O)=O)C2)no1 (stereo unspecified) | -4.02
75 | COc1cccc(-c2n[nH]c3c2CN(C(=O)c2oc(C)cc2C)CC3)c1 | -0.91
76 | CC(=O)NCC(=O)N1CCC2(CC1)C(=O)N(CC1CC1)c1ccccc12 | -11.7
77 | CN(CC(=O)Nc1cc(-c2cc(Cl)cc(Cl)c2)[nH]n1)S(C)(=O)=O | -5.73
78 | CN1CCN(C2CCN(CC(O)c3ccccc3F)CC2)C1=O (stereo unspecified) | 16.4
79 | CC(C)(C)CCN1CCN(Cn2nccc2-c2cccnc2)CC1 | 0.907
80 | O=C(O)CC(CC(=O)N(Cc1ccsc1)C1CC1)c1cccs1 (stereo unspecified) | 20.8
81 | Cc1ncc(CN2CCCC(c3cc(C(F)(F)F)[nH]n3)C2)s1 (stereo unspecified) | -1.49
82 | Cc1noc(C)c1CN(C)CC(c1cccs1)N1CCOCC1 (stereo unspecified) | -4.33
83 | Cc1cc(C(=O)N2Cc3ccccc3OC3(CCOCC3)C2)nc(N)n1 | -4.81
84 | CC(C)c1nc(C2CCCN2Cc2ccccc2C#N)no1 (stereo unspecified) | 5.38
85 | CC(NCc1ccccn1)c1cc2c(cc1Br)OCCO2 (stereo unspecified) | -4.31
86 | O=C1N(c2ccsc2)CCC12CCCN(CC1CC1)C2 (stereo unspecified) | -4.66
87 | O=C1CCNc2cc3c(cc2CN1Cc1ccco1)OCO3 | -5.93
88 | CC(C)CC(C)(CNC(=O)c1cnccn1)NC(=O)c1cnccn1 (stereo unspecified) | -0.237
89 | Cc1nc(N2CCCC2)nc2c1CCN(C(=O)C1CCCCC1)CC2 | -0.729
90 | O=C(c1ccc2[nH]nnc2c1)N1C[C@H](O)[C@]2(CCCO2)C1 | -1.24
91 | CCC(C)[C@H](NC(=O)c1ccc(F)cc1-n1cnnn1)C(=O)OC (stereo partly specified) | -10.7
92 | Cn1c(SCC2OCCc3ccccc32)n[nH]c1=O (stereo unspecified) | -8.09

Row | Structure (SMILES) | cytotoxicity at 70.5 h [%]
93 | CCCNC(=O)CN1CCC(NCc2c(C)nn(C)c2OC)CC1 | -0.725
94 | Cc1nnc(N2CCOC(C)(C(=O)N(C)C)C2)c2ccccc12 (stereo unspecified) | -8.96
95 | CCCNC(=O)Cn1nc(C(C)C)c2cnn(C(C)(C)C)c2c1=O | -0.765
96 | CN1CCC(Cc2nc(-c3cnccn3)n(Cc3ccccc3)n2)CC1 | -4.63
97 | CC(C)c1nc(C2CCCN2c2cnc3cc(F)c(F)cc3n2)no1 (stereo unspecified) | -5.58
98 | Cc1ccc(CN2CCc3onc(C(=O)NCCN(C)C)c3C2)o1 | -8.28
99 | O=C(Nc1cccnc1)[C@@H]1C[C@H]2OCC[C@H]2N(Cc2ccsc2)C1 | 0.225
100 | Cn1cc(-c2nnc3sc(C4CCC4)nn23)cn1 | -12.3
101 | O=C(N1CCOCC1)N1CCOC[C@H](Oc2ccc(C(F)(F)F)cc2)C1 | -5.44
102 | CN1CC2(CCN(C(=O)c3ccc4c(=O)n(C)cnc4c3)CC2)CC1=O | -6.3
103 | O=C(NC1CC1)c1cc(NC(=O)N2CCCC(O)C2)ccc1Cl (stereo unspecified) | -7.86
104 | CCNC(=O)CNC(=O)c1ccn(S(=O)(=O)c2ccc(C)cc2)c1 | 1.83
105 | Cc1cc(C[C@@H]2COC[C@H]2NCc2ccc(C(F)(F)F)cc2)on1 | -5.79
106 | COc1c(C(=O)NCC(C)Sc2ccccc2)c(C)nn1C (stereo unspecified) | -5.69
107 | Cc1cnn(CC2CCCCN2C(=O)c2ccc3c(c2)nnn3C)c1 (stereo unspecified) | -1.73
108 | CC(C)N1CCC2(CC1)C(=O)N(CCN(C)C)c1ccccc12 | -6.47
109 | COc1ccc2c(c1)C(C(=O)N(C)CCCc1nccn1C)CC(=O)N2 (stereo unspecified) | 5.74
110 | COC(=O)CCc1c(C)nc2cc(O)nn2c1C | -2.64
111 | COc1ccc(C2SCC(=O)Nc3n[nH]cc32)c(OC)c1OC (stereo unspecified) | 5.69
